{"source": "patent US12472259B2", "about": "“PKC inhibitors for the treatment of septic cholestasis with polymethine dye targeting” (SMARTDYELIVERY GMBH, priority 2018, dated 2025)", "key": {"[1]": {"system": "male C57/BL6 mice, PCI model", "assay": "Survival rate in cholestasis model under septic conditions, peritoneal contamination and infection (PCI)", "assay_type": "in vivo", "details": "4 mg/kg body weight", "method": "In order to mimic the septic cholestasis, a systemic inflammation was induced using the well-established peritoneal contamination and infection (PCI) model. In this model, a human faeces suspension is applied intraperitoneally (i.p.) and rapidly triggers sepsis with liver dysfunction.\nFor each batch of human stool, the dose is titrated carefully for a survival between 0% and 20% within two weeks.\nTo find the adequate dose of stool, different doses were tested. 6 h after i.p. application of the stool, 8-12 weeks old C57/BL6 mice or FVB/N mice were treated with the nanoparticles or the free drug respectively.\nA systemic infection/sepsis with organ failure was induced in male C57/BL6 mice by using the PCI model. For this purpose, a human fecal suspension (2.5 μl/g BW for stool batch1 and 6 μl/g for stool batch 2, respectively) was injected intraperitoneally (without anesthesia) with weight adaptation, thus triggering peritonitis with subsequent systemic infection. […] The animals were closely monitored and scored every 6 hours for signs of infection in order to timely. […] With the evaluated dose of 6 μl/g BW stool and additional antibiotic therapy, all mice died within three days, as shown in the Kaplan-Meier-Schatzer diagram (FIG. 11, right panel). […]"}, "[2]": {"details": "during idelalisib; cited from earlier work"}, "[3]": {"details": "cited from earlier work"}}, "data": [{"compound": "O=C1NC(=O)/C(=C\\c2ccc3nccnc3c2)S1", "note": "[AS605240]", "values": [{"measurement": "activity of the free drug alone (dose evaluation, survival)", "setting": "[1]", "result": "active"}]}, {"compound": "CN(C)CCCn1cc(C2=C(c3c[nH]c4ccccc34)C(=O)NC2=O)c2ccccc21", "note": "[BIM-1]", "values": [{"measurement": "activity of the free drug alone (dose evaluation, survival)", "setting": "[1]", "result": "active"}]}, {"compound": "CC[C@H](Nc1ncnc2[nH]cnc12)c1nc2cccc(F)c2c(=O)n1-c1ccccc1", "note": "[idelalisib]", "values": [{"measurement": "risk of developing sepsis as adverse effect compared to placebo", "setting": "[2]", "result": "five-fold higher risk"}]}, {"compound": "CO[C@@H]1[C@H](N(C)C(=O)c2ccccc2)C[C@H]2O[C@]1(C)n1c3ccccc3c3c4c(c5c6ccccc6n2c5c31)C(=O)NC4", "note": "[midostaurin]", "values": [{"measurement": "On-treatment death unrelated to the underlying malignancy", "setting": "[3]; 16 patients, most commonly from infection (sepsis or pneumonia)", "result": 11, "unit": "%"}, {"measurement": "Grade≥3 adverse reactions (fatigue, sepsis, gastrointestinal hemorrhage, pneumonia, diarrhea, febrile neutropenia) reported in", "setting": "[3]; patients on midostaurin", "result": "≥ 5", "unit": "%"}, {"measurement": "Serious adverse reactions most commonly due to infections and gastrointestinal disorders", "setting": "[3]; patients on midostaurin", "result": 20, "unit": "%"}, {"measurement": "Serious adverse reactions reported", "setting": "[3]; patients on midostaurin", "result": "68 % of patients"}, {"measurement": "Treatment discontinuation due to adverse reaction", "setting": "[3]; patients on midostaurin", "result": "21 % of patients"}]}]}
